In test [1] the target is T1, Escherichia coli SC (^EcSC) (Escherichia coli, UniProt P0A988).
T1 construct: His tag (inferred from the pET15b vector and Ni-NTA purification) (N); made in house; host or cells: E. coli
Put plainly: biochemical. It is filed as binding. The method, then: The procedure has been described previously (Wolff, P.; Oliéric, V.; Briand, J. P.; Chaloin, O.; Dejaegere, A.; Dumas, P.; Ennifar, E.; Guichard, G.; Wagner, J.; Burnouf, D. Y., Structure-Based Design of Short Peptide Ligands Binding onto the E. coli Processivity Ring. J. Med. Chem. 2011, 54 (13), 4627-4637). Briefly, E.coli cells were transformed with plasmids pET15b containing the dnaN gene from E. coli and were grown in LB at 37° C. to OD 0.5, then induced by IPTG (0.1 mM) at 28° C. overnight. dnaN proteins fractions were first enriched on a Ni-NTA column, eluted with a histidine step (300 mM) and further purified on a Source Q column in buffer containing 20 mM Tris HCI pH 7.5, 0.5 mM EDTA and 10% (v/v) glycerol, using a gradient from 0 to 0.5 M NaCl. After a final ultracentrifugation (45 K, 1 h, 20° C.), soluble proteins were concentrated on a Centricon 30 K (Millipore) in the same buffer and stored at 4° C. in 2 M ammonium sulfate. Buffer exchange was performed on Centrikon 10 K at 4° C. before use and protein quality was assessed by DLS.
(§1) ITC experiments were performed using an iTC200 or a PEAQ-ITC instrument (Microcal Malvern Panalytical). Peptides (300 or 600 µM) were titrated at 25° C. by sequential injections (usually 2 µl each) into an SC solution (30 or 60 µM). Data were corrected for heat of injection by subtracting the signal of the titration of peptides into proteiN-free buffer solution (Hepes 10 mM pH 7.4, NaCl 0.15 M, EDTA 3 mM). Each titration was performed at least twice. Analyses of experimental data were performed following a classical treatment with the AFFINImeter software (https://www.affinimeter.com; S4S, Santiago de Compostela, Spain). In addition, kinetic information was obtained in some cases with kinITC as implemented in the software AFFINImeter.
All newly synthesized peptides were tested for their interaction with ^EcSC by ITC at 25° C. As a general rule, all thermodynamic profiles reveal an exothermic interaction, and a non-favorable entropic component. The resulting negative Gibb’s free energies characterize a spontaneous interaction. The analysis of raw data by the Affinimeter® software also gave access to kinetics rate constant of the interaction.

Test [2] addresses T2, clamps from Pseudomonas aeruginosa (^PaSC) (Pseudomonas aeruginosa, UniProt Q9I7C4).
T2 construct: made in house
Description: ITC of peptides with P. aeruginosa clamp. The note with it: for Kd: ITC at 25° C., means of three independant experiments, standard deviations in brackets; for pKd: range over ^PaSC and ^AbSC. Type of test: binding. The method, then: as §1
(§2) Protein quality was assessed by DLS. The purification of clamps from other bacteria used the same procedure.
(§3) The bacterial sliding clamps present a highly conserved binding site among bacterial species. […] All these species belong to the ESKAPE group and are in the first priority bacteria list established by the World Health Organization for which new antibiotics are urgently needed.

The target in test [3] is clamps from Acinetobacter baumannii (^AbSC). Put plainly: ITC of peptides with A. baumannii clamp. The note with it: ITC at 25° C.; means of three independant experiments, standard deviations in brackets; read-out: affinities (Kd in nM), A. baumannii. Type of test: binding. Here is the method:
as §1, §2, §3

For a further test, the system named is Bacillus subtilis 168. It is filed as cell-based. Here is the method: (§4) Antimicrobial activity of peptide 5d was assessed through the measurement of the Minimal Inhibition Concentration (MIC). MIC assays were performed in duplicate in 96-well microtiter plates on the basis of the protocol recommended by the Clinical and Laboratory Standards Institute. Laboratory strains of Escherichia coli D22, Bacillus subtilis 168 and Stpaphylococcus aureus HG001were cultivated on either LB-agar plates or liquid 1x Mueller Hinton broth. Briefly, a mix of 3-4 fresh (less than 36 hours) colonies grown on LB-agar plates were inoculated in 3 ml of MH broth and incubated for about 4 h at 37° C. under agitation. Dilution of these cultures to an OD600 nm of 0.002 was made in MH broth. Within a time laps not exceeding 30 min, 50 µl of this cell suspension was added to 50 µl of MH broth (containing or not serial dilutions of the peptide 5 d in MH broth) in wells of a 96-well round bottom microwell plate (Greiner; final cell density of about 5 × 10^5 cfu/ml). Plates were incubated at 37° C. for 18-20 hours. MIC was defined as the minimal antibiotic concentration that results in no visible growth of the strain in the micotiter plate well.

The subject of test [4] is Stpaphylococcus aureus HG001. Type of test: cell-based, S. aureus. The method, then:
as §4

A further test has as its system Escherichia coli D22. Put plainly: MIC assay, E. coli. Conditions: MH broth, 37° C., 18-20 hours. Type of test: cell-based. Here is the method: as §4
The next test has as its target ^EcSC (Escherichia coli, UniProt P0A988). Conditions: SPR, J. Med. Chem. 2011; read-out: Kd previously determined by SPR; cited from earlier work. (SPR reads the build-up and loss of mass on a sensor chip optically.)
Setting [5] is: Kd (nM), ITC at 298.15 K (25° C.).
The mark [6] stands for this setting: affinities (Kd in nM), E.coli, ITC at 25° C., means of three independant experiments, standard deviations in brackets.
Where [7] appears, read: affinities (Kd in nM), P. aeruginosa.
The mark [8] stands for this setting: read-out: affinities (Kd in nM), P. aeruginosa.

pKd: −log10 of the molar value. Read-outs that look alike come from different tables or passages of the source. Square brackets hold non-standard residues; d marks the D form. Peptide text beside a SMILES is read from it. * marks the point of attachment. Acryloyl(3-(3-pyridyl),E) = O=C(/C=C/c1cccnc1)*; Phe(3,4-Cl2) = N[C@@H](Cc1ccc(Cl)c(Cl)c1)C(=O)O; Oic = O=C(O)[C@@H]1C[C@@H]2CCCC[C@@H]2N1; NMeR = CN[C@@H](CCCNC(=N)N)C(=O)O; dNMeR = CN[C@H](CCCNC(=N)N)C(=O)O; Tridecanoyl = CCCCCCCCCCCCC(=O)*; Cha = N[C@@H](CC1CCCCC1)C(=O)O; NMeD = CN[C@@H](CC(=O)O)C(=O)O; NMeDab = CN[C@@H](CCN)C(=O)O

T2 sequence (Q9I7C4 whole entry): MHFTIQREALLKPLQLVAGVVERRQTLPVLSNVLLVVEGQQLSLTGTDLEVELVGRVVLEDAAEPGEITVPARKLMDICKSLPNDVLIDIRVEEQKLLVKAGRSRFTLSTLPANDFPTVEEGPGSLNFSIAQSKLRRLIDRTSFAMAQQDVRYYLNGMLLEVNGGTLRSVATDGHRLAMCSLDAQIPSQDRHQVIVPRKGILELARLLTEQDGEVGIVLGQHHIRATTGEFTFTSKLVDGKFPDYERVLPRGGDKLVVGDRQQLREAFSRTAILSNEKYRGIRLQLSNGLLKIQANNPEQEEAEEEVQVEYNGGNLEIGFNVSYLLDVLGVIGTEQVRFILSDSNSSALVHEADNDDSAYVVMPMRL
T1 sequence (P0A988 whole entry): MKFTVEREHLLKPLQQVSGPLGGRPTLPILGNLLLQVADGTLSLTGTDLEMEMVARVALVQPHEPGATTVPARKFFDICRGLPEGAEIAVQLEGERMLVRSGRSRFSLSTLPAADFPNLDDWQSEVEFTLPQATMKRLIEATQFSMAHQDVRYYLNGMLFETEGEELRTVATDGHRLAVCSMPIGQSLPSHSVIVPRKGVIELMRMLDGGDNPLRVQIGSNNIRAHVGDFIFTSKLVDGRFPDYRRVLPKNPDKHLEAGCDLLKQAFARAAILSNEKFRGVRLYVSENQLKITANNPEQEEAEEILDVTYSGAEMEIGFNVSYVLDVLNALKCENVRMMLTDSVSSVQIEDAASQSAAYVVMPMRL
Chain of ^EcSC (P0A988 whole entry): as above

The term Kd denotes the concentration at which binding is half-saturated. With `CC(=O)N(C)[C@@H](CCCNC(=N)N)C(=O)N[C@@H](CCC(N)=O)C(=O)N[C@@H](CC1CCCCC1)C(=O)N(C)[C@@H](CC(=O)O)C(=O)N[C@@H](CC(C)C)C(=O)N[C@@H](Cc1ccc(Cl)c(Cl)c1)C(=O)O` [P37] (Ac-[NMeR]Q[Cha][NMeD]L[Phe(3,4-Cl2)]-OH), the values for the Kd in test [1] (setting [5]), in test [1] (setting [6]) and in test [2] (setting [7]) were 92 nM, 74 nM and 169 nM, respectively. In test [2] (affinity for these clamps (^PaSC and ^AbSC)), this molecule had a pKd of 6.77 to 6.92.

By kon is commonly meant a measure of how fast the partners come together. With `CC(C)C[C@H](NC(=O)[C@H](CC(=O)O)N(C)C(=O)[C@H](CC1CCCCC1)NC(=O)[C@H](CCC(N)=O)NC(=O)/C=C/c1cccnc1)C(=O)N[C@@H](Cc1ccc(Cl)c(Cl)c1)C(=O)O` [P38] ({Acryloyl(3-(3-pyridyl),E)}-Q[Cha][NMeD]L[Phe(3,4-Cl2)]-OH), the Kd worked out at 46 nM in test [1] (setting [5]), 45 nM in test [1] (setting [6]) and 120 nM in test [2] (setting [8]). Further, the kon in test [1] (read-out: kon (M^-1 s^-1)) stood at 110000 M⁻¹ s⁻¹. Besides, the pKd in test [2] (read-out: affinity for these clamps (^PaSC and ^AbSC)) is 6.77 to 6.92.

Regarding `CC(=O)N[C@@H](CCC(N)=O)C(=O)N[C@@H](CC1CCCCC1)C(=O)N(C)[C@@H](CC(=O)O)C(=O)N[C@@H](CC(C)C)C(=O)N[C@@H](Cc1ccc(Cl)c(Cl)c1)C(=O)O` [P35] (Ac-Q[Cha][NMeD]L[Phe(3,4-Cl2)]-OH), the Kd in test [1] (setting [5]) turned out to be 41 nM; in test [2] (setting [7]), 140 nM. Moreover, the kon in test [1] (read-out: kon (M^-1 s^-1)) is 270000 M⁻¹ s⁻¹.

For `CC(=O)N[C@@H](CCC(N)=O)C(=O)N[C@@H](CC1CCCCC1)C(=O)N[C@@H](CC(=O)O)C(=O)N[C@@H](CC(C)C)C(=O)N1[C@H](C(=O)N[C@@H](Cc2ccc(Cl)c(Cl)c2)C(=O)O)C[C@@H]2CCCC[C@@H]21` [P50] (Ac-Q[Cha]DL[Oic][Phe(3,4-Cl2)]-OH), in test [1] (ITC at 25° C.), the “ΔG (kcal mol^-1)” value is on record as -10.1 (± 0.2) kcal mol^-1. The equilibrium dissociation constant (Kd) in test [1] (setting [5]) worked out at 39 nM; in test [1] (setting [6]) it was 39 nM; in test [2] (setting [7]), 20 nM; in test [3], 70 nM. In addition, in test [1] (read-out: kon (M^-1 s^-1)), the kon is 60000 M⁻¹ s⁻¹.

For orientation: MIC means the lowest concentration found to suppress growth. Turning to `CCCCCCCCCCCCC(=O)N(C)[C@H](CCCNC(=N)N)C(=O)N[C@@H](CCC(N)=O)C(=O)N[C@@H](CC1CCCCC1)C(=O)N(C)[C@@H](CCNC(C)=O)C(=O)N[C@@H](CC(C)C)C(=O)N[C@@H](Cc1ccc(Cl)c(Cl)c1)C(N)=O` [Peptide 5d] (Tridecanoyl-[dNMeR]Q[Cha][NMeDab](Ac)L[Phe(3,4-Cl2)]-NH2), the minimum inhibitory concentration (MIC) is 4 µM in the test with Bacillus subtilis 168 (168); 4.6 µg/mL in the test with Bacillus subtilis 168 (MH broth, 37° C., 18-20 hours); 4 to 8 µM in test [4]; 4.6 to 9.2 µg/mL in test [4] (MH broth, 37° C., 18-20 hours). Besides, the “MIC (µg/ml)” value against Escherichia coli D22 was 2.3 to 4.6 µg/mL. Besides, the “MIC µM” value in the test on Escherichia coli D22 was 2 to 4 µM.

`CC(=O)N[C@@H](CCC(N)=O)C(=O)N[C@@H](CC1CCCCC1)C(=O)N[C@@H](CC(=O)O)C(=O)N[C@@H](CC(C)C)C(=O)N[C@@H](Cc1ccccc1)C(=O)O` [P1, Ac-Gln-Cha-Asp-Leu-Phe-OH, reference compound] (Ac-Q[Cha]DLF-OH): the “ΔG” value in test [1] (ITC at 25° C.) was -9.2 kcal/mol. Besides, in test [1] (ITC at 298.15 K (25° C.)), the “ΔG (kcal/mol)” value is -9.2 (± 0.2) kcal/mol. Further, the Kd is 170 nM in test [1] (setting [6]), 600 nM in test [2] (setting [8]) and 655 nM in test [3]. For the same molecule, the association rate constant (kon) in test [1] (read-out: kon (M^-1.s^-1)) turned out to be 40000 M⁻¹ s⁻¹. Further, on ^EcSC, the pKd is 6.77.
